Laboratory results from patent US5462927A, “Peptides aiding nerve regeneration” (The Administrators of the Tulane Educational Fund, priority 1992, dated 1995).
Ends that are not written are not given here.

Tested on: crushed sciatic nerve
Assay: Sensorimotor function test (sciatic nerve regeneration assay, foot-flick response to thermal pain)
Assay type: in vivo, rat
Settings: s.c. every 24 hr for approximately 20-25 days; head prints only 'μG/24 HRS'; vs 0.9% NaCl control
Protocol: Female, Sprague-Dawley rats (Charles River Breeding Labs) were used at an age of 7-8 weeks (120-140 g). Under ether anesthesia, the right sciatic nerve was carefully exposed and crushed with constant pressure, hemostatic forceps for 30 sec prior to closure and suturing of the incision. After surgery, the animals were randomly assigned to treatment groups of 10. The test peptides were administered s.c. in 0.9% NaCl in a vol of 0.1 ml. NaCl (0.9%) served as the control. Injections were started immediately after surgery and given every 24 hr thereafter for approximately 20-25 days. The criterion of sciatic nerve regeneration was based on the recovery of the foot-flick response to thermal pain. Beginning 48 hr after surgery, the rats were tested five days a week for the ability to withdraw, from a heat source, the paw innervated by the crushed nerve. All sensorimotor testing was performed between 1:00 and 3:00 p.m. Specifically, the rat was immobilized by wrapping in a towel, and the sole of the lesioned limb was placed over the aperture of a modified d'Amour apparatus. The time required to withdraw the foot was recorded to the nearest 0.1 of sec using a digital stopwatch. If no response occurred by 5 sec, the test was terminated to avoid tissue damage. The observe measuring the foot-flick response was blind to the treatment group being tested. All animals were acclimatized to the testing procedure prior to surgery. Baseline values were obtained by determining the response time for the unlesioned limb.

Molecule	% Reduction of Recovery Time
CCCC[C@H](N)C(=O)N[C@@H](CCC(N)=O)C(=O)N[C@@H](Cc1c[nH]cn1)C(=O)N[C@@H](Cc1ccccc1)C(=O)N[C@@H](CCCNC(=N)N)C(=O)N[C@@H](Cc1c[nH]c2ccccc12)C(=O)NCC(N)=O [BIM-22010, NLeu--Gln--His--Phe--Arg--Trp--Gly--NH2]	13%
AQYFRWG-NH2 [BIM-22016, L--Ala--Gln--Tyr--Phe--Arg--Trp--Gly--NH2]	13%
